Where two headings read alike, the source gives them in different places.
Assays:
[1] = target: T1, norepinephrine transporter (NET) (Rattus norvegicus, UniProt Q63380); assay: Radioligand binding to norepinephrine transporter, [3H]nisoxetine, rat cerebral cortex homogenate
T1 construct: from tissue; host or cells: rat cerebral cortex
Text: (§1) 30: 89-92, 1990; Andersen, P. H., J. Neurochem. 48:1887-1896, 1987).

[2] = target: T2, serotonin transporter (SERT) (Rattus norvegicus, UniProt P31652); assay: Radioligand binding to serotonin transporter, [3H]paroxetine, rat cerebral cortex homogenate; conditions: for Selectivity for SERT: ratio of Ki for NET or DAT to that for SERT (values match DAT/SERT), larger number is more selective for SERT
T2 construct: For SERT and NET assays, rat cerebral cortex was homogenized in cold SERT assay buffer; from tissue; host or cells: rat cerebral cortex
Text: as §1

[3] = target: dopamine transporter (DAT) (Rattus norvegicus, UniProt P23977); assay: Radioligand binding to dopamine transporter, [3H]GBR-12935, rat corpus striatum homogenate;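 also: displacement read as filter-bound tritium by liquid scintillation counting, roughly 1 mg wet tissue per tube, IC50 from fitted concentration-inhibition curves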
Experimental: For DAT assays, corpus striatum tissue from rat forebrain was rapidly dissected on ice, pooled, weighed, and homogenized at 30 mg/mL in cold DAT buffer (50 mM Tris citrate, pH 7.4, 120 mM NaCl, 4 mM MgCl2) and stored at −70° C. The pellet was suspended in the assay buffer to provide the equivalent of about 1 mg of wet weight per assay tube.
L=400 pM) and 1.0 μM GBR-12909 (Research Biochemicals International, Natick, Mass.) as blank (Kula, N. S. et al., Neuropharmacology.
Assay tubes were incubated at room temperature for 120 min (SERT) or on ice for 180 min (NET) or 45 min (DAT). Labeled tissue samples were recovered in a Brandel Cell Harvester on glass fiber filter sheets saturated with 0.3% (v/v) aqueous polyethyleneimine, washed with ice-cold 0.9% NaCl, and counted for tritium in a liquid scintillation counter. Concentration-inhibition curves were computer-fit to determine IC50±SEM and converted to Ki values in nM from the Cheng -Prusoff relationship Ki=IC50/(1+[L]/Kd).

[4] = rat cerebral cortex membranes, [3H]nisoxetine 600 pM, on ice 180 min, Ki from IC50 by Cheng-Prusoff, read-out: NET (Ki)
[5] = rat cerebral cortex membranes, [3H]paroxetine 200 pM, room temperature 120 min, Ki from IC50 by Cheng-Prusoff, read-out: SERT (Ki)
[6] = read-out: DAT (Ki), rat corpus striatum membranes, [3H]GBR-12935 400 pM, on ice 45 min, Ki from IC50 by Cheng-Prusoff

T2 sequence (P31652 whole entry): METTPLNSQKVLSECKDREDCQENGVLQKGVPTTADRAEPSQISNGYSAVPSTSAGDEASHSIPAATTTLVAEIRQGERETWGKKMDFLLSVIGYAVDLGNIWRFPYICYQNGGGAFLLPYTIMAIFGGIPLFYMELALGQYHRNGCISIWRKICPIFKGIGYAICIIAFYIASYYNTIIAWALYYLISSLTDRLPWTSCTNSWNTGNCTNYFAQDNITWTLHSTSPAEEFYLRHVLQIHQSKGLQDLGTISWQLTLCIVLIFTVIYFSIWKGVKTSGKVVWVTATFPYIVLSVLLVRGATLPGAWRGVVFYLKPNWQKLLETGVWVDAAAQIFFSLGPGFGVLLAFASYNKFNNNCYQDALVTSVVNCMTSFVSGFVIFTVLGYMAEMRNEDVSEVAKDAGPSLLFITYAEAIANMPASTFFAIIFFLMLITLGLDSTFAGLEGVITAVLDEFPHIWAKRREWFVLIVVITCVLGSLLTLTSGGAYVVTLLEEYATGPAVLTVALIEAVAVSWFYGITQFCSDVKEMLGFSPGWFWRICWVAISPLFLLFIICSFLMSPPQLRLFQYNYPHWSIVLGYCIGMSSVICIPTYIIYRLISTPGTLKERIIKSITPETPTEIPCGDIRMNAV
Sequence of dopamine transporter (DAT) (P23977 whole entry): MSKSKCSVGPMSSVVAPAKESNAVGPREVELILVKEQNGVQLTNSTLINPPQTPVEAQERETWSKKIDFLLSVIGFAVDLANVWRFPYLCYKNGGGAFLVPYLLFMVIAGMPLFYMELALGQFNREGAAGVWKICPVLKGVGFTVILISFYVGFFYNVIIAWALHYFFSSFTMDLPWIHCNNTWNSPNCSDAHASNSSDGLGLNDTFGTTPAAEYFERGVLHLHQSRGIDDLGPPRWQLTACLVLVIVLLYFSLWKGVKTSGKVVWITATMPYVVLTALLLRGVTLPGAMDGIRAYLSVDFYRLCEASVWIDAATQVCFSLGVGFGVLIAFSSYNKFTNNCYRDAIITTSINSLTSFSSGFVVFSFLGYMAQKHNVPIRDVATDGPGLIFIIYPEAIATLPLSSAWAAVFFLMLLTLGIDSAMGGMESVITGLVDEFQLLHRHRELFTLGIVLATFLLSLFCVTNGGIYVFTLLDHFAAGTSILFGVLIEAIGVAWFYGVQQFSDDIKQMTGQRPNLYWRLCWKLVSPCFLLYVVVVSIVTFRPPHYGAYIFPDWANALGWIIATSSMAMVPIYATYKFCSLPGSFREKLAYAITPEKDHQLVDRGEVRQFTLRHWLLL
T1 sequence (Q63380 1-617): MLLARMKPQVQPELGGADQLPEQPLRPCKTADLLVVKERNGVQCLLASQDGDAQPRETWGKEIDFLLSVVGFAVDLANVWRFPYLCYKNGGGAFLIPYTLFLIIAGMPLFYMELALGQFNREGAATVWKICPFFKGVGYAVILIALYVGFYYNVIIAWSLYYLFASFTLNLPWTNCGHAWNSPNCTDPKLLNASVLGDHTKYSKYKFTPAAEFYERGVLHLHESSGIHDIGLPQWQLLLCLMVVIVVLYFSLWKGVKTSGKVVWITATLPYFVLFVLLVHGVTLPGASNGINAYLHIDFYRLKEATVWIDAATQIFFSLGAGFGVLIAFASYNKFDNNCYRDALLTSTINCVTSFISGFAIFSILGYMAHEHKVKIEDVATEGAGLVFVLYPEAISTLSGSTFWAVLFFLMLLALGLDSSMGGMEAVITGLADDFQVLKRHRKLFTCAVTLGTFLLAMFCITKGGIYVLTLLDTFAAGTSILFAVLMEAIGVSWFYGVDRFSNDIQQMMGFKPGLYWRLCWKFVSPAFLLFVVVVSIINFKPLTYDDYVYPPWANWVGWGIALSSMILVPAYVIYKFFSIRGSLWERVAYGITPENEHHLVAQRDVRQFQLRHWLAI

Structure (SMILES) | Ki [1, 4] | Ki [2, 5] | Selectivity for SERT [2] | Ki [3, 6] | Ki ([2]; read-out: SERT (Ki)) | Ki [3] | Ki [1] | Ki [2] | melting point
COC(=O)C1C(c2ccc(-c3cccc([N+](=O)[O-])c3)cc2)CC2CCC1N2C (centres unmarked) [Compound 4b] | 0.963 µM | 0.0008 µM | 11.9 | 0.00954 µM | – | – | – | – | –
COC(=O)C1C(c2ccc(-c3cccc(C(=O)c4ccccc4)c3)cc2)CC2CCC1N2C (centres unmarked) [Compound 8] | > 3 µM | – | 1 | – | > 3 µM | > 3 µM | – | – | –
COC(=O)C1C(c2ccc(-c3cccc(N)c3)cc2)CC2CCC1N2C (centres unmarked) [Compound 5] | 0.661 µM | – | – | 0.0242 µM | – | – | – | – | –
COC(=O)[C@H]1[C@@H](c2ccc(-c3nccs3)cc2)C[C@@H]2CC[C@H]1N2C [Compound 14, 3β-(4-Thiazol-2-yl-phenyl)tropane-2β-carboxylic acid methyl ester] | – | – | 310 | – | – | 0.52 µM | > 10 µM | 0.00167 µM | –
COC(=O)C1C(c2ccc(-c3ccc(C(C)=O)cc3)cc2)CC2CCC1N2C (centres unmarked) [Compound 6c] | 0.754 µM | – | – | 0.0191 µM | – | – | – | – | –
COC(=O)C1C(c2ccc(-c3ccccc3C(C)=O)cc2)CC2CCC1N2C (centres unmarked) [Compound 6a] | > 20 µM | – | – | 1.02 µM | – | – | – | – | –
COC(=O)C1C(c2ccc(-c3ccc([N+](=O)[O-])cc3)cc2)CC2CCC1N2C (centres unmarked) [Compound 4c] | 0.37 µM | 0.0297 µM | 0.17 | 0.0051 µM | – | – | – | – | –
COC(=O)C1C(c2ccc(-c3cccc(C(C)=O)c3)cc2)CC2CCC1N2C (centres unmarked) [Compound 6b] | > 50 µM | – | – | 0.0124 µM | – | – | – | – | –
COC(=O)C1C(c2ccc(-c3cccc(OC)c3)cc2)CC2CCC1N2C (centres unmarked) [Compound 3b] | > 3 µM | 0.00189 µM | 31.1 | 0.0587 µM | – | – | – | – | –
COC(=O)C1C(c2ccc(-c3cncc4ccccc34)cc2)CC2CCC1N2C (centres unmarked) [Compound 21] | > 10 µM | – | 10 | – | – | > 30 µM | – | – | –
COC(=O)C1C(c2ccc(-c3ccccc3[N+](=O)[O-])cc2)CC2CCC1N2C (centres unmarked) [Compound 4a] | > 3 µM | – | 1 | – | – | – | – | – | –
COC(=O)C1C(c2ccc(-c3cccc(O)c3)cc2)CC2CCC1N2C (centres unmarked) [Compound 2] | 0.155 µM | – | – | 0.0152 µM | – | – | – | – | –
COC(=O)C1C(c2ccc(-c3ccccc3OC)cc2)CC2CCC1N2C (centres unmarked) [Compound 3a] | > 10 µM | – | – | 0.357 µM | – | – | – | – | –
COC(=O)C1C(c2ccc(-c3ccc(OC)cc3)cc2)CC2CCC1N2C (centres unmarked) [Compound 3c] | 0.352 µM | 0.032 µM | 0.41 | 0.0132 µM | – | – | – | – | –
COC(=O)C1C(c2ccc(-c3ccccn3)cc2)CC2CCC1N2C (centres unmarked) [Compound 15] | ≥ 10 µM | 0.161 µM | 0.27 | 0.044 µM | – | – | – | – | –
COC(=O)C1C(c2ccc(-c3cnc4ccccc4c3)cc2)CC2CCC1N2C (centres unmarked) [Compound 20] | > 3 µM | 0.02 µM | 3.0 | 0.0598 µM | – | – | – | – | –
COC(=O)[C@H]1[C@@H](c2ccc(-c3cccs3)cc2)C[C@@H]2CC[C@H]1N2C [Compound 11, 3β-(4-Thiophen-2-yl-phenyl)tropane-2β-carboxylic acid methyl ester] | – | – | 346 | – | – | 0.052 µM | 0.158 µM | 0.00015 µM | –
COC(=O)C1C(c2ccc(-c3cccnc3)cc2)CC2CCC1N2C (centres unmarked) [Compound 16] | 1.41 µM | 0.00354 µM | 7.3 | – | – | 0.0265 µM | – | – | –
COC(=O)[C@H]1[C@@H](c2ccc(-c3ccsc3)cc2)C[C@@H]2CC[C@H]1N2C [Compound 12, 3β-(4-Thiophen-3-yl-phenyl)tropane-2β-carboxylic acid methyl ester] | – | – | 711 | – | – | 0.0121 µM | 0.189 µM | 0.00017 µM | –
COC(=O)[C@H]1[C@@H](c2ccc(-c3cccc(CNC(=O)OC(C)(C)C)c3)cc2)C[C@@H]2CC[C@H]1N2C [Compound 7, 3β-[3′-(tert-Butoxycarbonylaminomethyl)biphenyl-4-yl]-Tropane-2β-carboxylic acid methyl ester] | > 30 µM | – | 1 | – | > 10 µM | > 10 µM | – | – | –
COC(=O)C1C(c2ccc(-c3cccc(C4OCCO4)c3)cc2)CC2CCC1N2C (centres unmarked) [Compound 9] | > 30 µM | – | 0.03 | – | > 10 µM | 0.363 µM | – | – | –
COC(=O)C1C2CCC(CC1c1ccc(-c3cccc(OC)c3)cc1)N2 (stereo not drawn) [Compound 10, 3β-(3′-methoxybiphenyl-4-yl)nortropane-2β-carboxylic acid methyl ester] | 0.295 µM | – | 306 | – | 0.00232 µM | 0.71 µM | – | – | 102 to 104 °C
COC(=O)C1C2CCC(CC1c1ccc(-c3cncc(OC)c3)cc1)N2 (stereo not drawn) [Compound 18, 3β-[4-(5′-Methoxypyridin-3-yl)-phenyl]nortropane-2β-Carboxylic Acid Methyl Ester] | 1.59 µM | – | 150 | – | 0.00391 µM | 0.587 µM | – | – | –
COC(=O)C1C(c2ccc(-c3cncnc3)cc2)CC2CCC1N2C (centres unmarked) [Compound 19] | > 10 µM | 0.0331 µM | 10.4 | 0.344 µM | – | – | – | – | –
COC(=O)C1C(c2ccc(-c3ccco3)cc2)CC2CCC1N2C (centres unmarked) [Compound 13] | – | 0.00113 µM | 6.32 | 0.00714 µM | – | – | 1.4 µM | – | –
